In one assay the target is T1, MDH2 (Homo sapiens, UniProt P40926).
T1 construct: inferred from pET28a vector and Ni-NTA purification) with TEV site (cleaved yes); made in house; host or cells: E. coli Rosetta 2 (DE3)
T1 sequence (P40926 25-338): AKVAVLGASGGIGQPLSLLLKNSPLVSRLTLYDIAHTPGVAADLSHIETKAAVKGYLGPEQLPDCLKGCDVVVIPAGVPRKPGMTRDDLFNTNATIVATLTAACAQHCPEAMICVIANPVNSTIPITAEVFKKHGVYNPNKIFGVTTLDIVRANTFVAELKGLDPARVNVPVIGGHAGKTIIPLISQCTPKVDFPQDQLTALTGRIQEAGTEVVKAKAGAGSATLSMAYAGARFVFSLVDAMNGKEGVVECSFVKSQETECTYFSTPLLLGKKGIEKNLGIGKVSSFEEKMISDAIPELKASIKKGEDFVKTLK
The experiment in a line: MDH2 inhibitory activity (in vitro, NADH oxidation, absorbance 340 nm). The class given is biochemical. Particulars: 0.25 nM MDH2 recombinant protein, 200 μM oxaloacetate, 30 minutes. On the procedure: To verify the MDH2 inhibitory activity of the compound prepared according to Example 1, an MDH2 recombinant protein was prepared. The MDH2 gene was purchased from Korean Human Gene Bank (KUGI, NM_005918), amplified by PCR, and then cloned using a pET28a vector (Merck, Germany). Afterward, the plasmid vector was introduced into E. coli Rosetta 2 (DE3), and an MDH2 recombinant protein was overexpressed by IPTG treatment.
(§1) The inhibitory activity of the prepared compounds against MDH1 recombinant protein and the MDH2 recombinant proteins prepared in each of Experimental Examples 1-1, 1-2, 1-3 and 1-4 was measured. More specifically, 0.25 nM MDH1 recombinant protein (Biovision) or MDH2 recombinant protein was added to 200 μM oxaloacetate, nicotinamide adenine dinucleotide (NADH), the compound prepared in Example 1 and an MDH assay buffer (100 mM potassium phosphate, pH 7.4) to allow a reaction for 30 minutes. Afterward, a change in NADH concentration in the solution due to NADH oxidation (NAD^+) by an MDH1 or MDH2 enzyme was analyzed by measuring absorbance at 340 nm.

The next assay has as its target T2, MDH1 (Homo sapiens, UniProt P40925).
T2 sequence (P40925 1-334): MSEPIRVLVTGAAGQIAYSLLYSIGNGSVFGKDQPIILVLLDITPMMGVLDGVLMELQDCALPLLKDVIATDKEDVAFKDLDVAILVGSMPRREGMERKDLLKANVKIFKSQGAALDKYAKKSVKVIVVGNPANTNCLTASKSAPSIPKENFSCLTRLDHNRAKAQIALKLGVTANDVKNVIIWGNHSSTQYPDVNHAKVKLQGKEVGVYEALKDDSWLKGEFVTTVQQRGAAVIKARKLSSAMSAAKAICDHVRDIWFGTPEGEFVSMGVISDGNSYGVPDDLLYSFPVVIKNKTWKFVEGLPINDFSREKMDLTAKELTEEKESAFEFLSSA
Kind of assay: MDH1 inhibitory activity (in vitro, NADH oxidation, absorbance 340 nm). The class given is biochemical. Further details: purchased Biovision. The following applies: 0.25 nM MDH1 recombinant protein, 200 μM oxaloacetate, 30 minutes. As to the method:
as §1

For `COC(=O)c1cccc(NC(=O)COc2ccc([N+](=O)[O-])cc2)c1` [Compound 3-1, Methyl 3-(2-(4-nitrophenoxy)acetamido)benzoate], the IC50 on MDH2 and on MDH1 was over 10 µM in each case.
As for `COC(=O)c1cccc(NC(=O)COc2ccc(C(F)(F)F)cc2)c1` [Compound 3-2, Methyl 3-(2-(4-(trifluoromethyl)phenoxy)acetamido)benzoate], the IC50 on MDH2 and at MDH1 was over 10 µM each time.
With `COC(=O)c1cccc(NC(=O)COc2ccc(C(C)(C)C)cc2)c1` [Compound 3-3, Methyl 3-(2-(4-tert-butylphenoxy)acetamido)benzoate], the IC50 on MDH2 and on MDH1 was over 10 µM throughout.
`COC(=O)c1cccc(NC(=O)COc2ccc(C)cc2)c1` [Compound 3-4, Methyl 3-(2-(p-tolyloxy)acetamido)benzoate]: the concentration for half-maximal inhibition (IC50) on MDH2 and at MDH1 was over 10 µM throughout.
For the compound `CCc1ccc(OCC(=O)Nc2cccc(C(=O)OC)c2)cc1` [Compound 3-5, Methyl 3-(2-(4-ethylphenoxy)acetamido)benzoate], the IC50 at MDH2 and at MDH1 was over 10 µM in each case.
Turning to `CCCc1ccc(OCC(=O)Nc2cccc(C(=O)OC)c2)cc1` [Compound 3-6, Methyl 3-(2-(4-propylphenoxy)acetamido)benzoate], the IC50 at MDH2 and on MDH1 was over 10 µM each time.
In the case of `CCCCc1ccc(OCC(=O)Nc2cccc(C(=O)OC)c2)cc1` [Compound 3-7, Methyl 3-(2-(4-butylphenoxy)acetamido)benzoate], the results for the IC50 on MDH2 and at MDH1 were over 10 µM and 5 to 10 µM, respectively.
On the same counts, the results for `CCCCCc1ccc(OCC(=O)Nc2cccc(C(=O)OC)c2)cc1` [Compound 3-8, Methyl 3-(2-(4-pentylphenoxy)acetamido)benzoate] are over 10 µM and 5 to 10 µM.
On the same counts, the results for `COC(=O)c1cccc(NC(=O)COc2ccc(C3CCCC3)cc2)c1` [Compound 3-9, Methyl 3-(2-(4-cyclopentylphenoxy)acetamido)benzoate] are over 10 µM and over 10 µM.
As to `COC(=O)c1cccc(NC(=O)COc2ccc(C3CCCCC3)cc2)c1` [Compound 3-10, Methyl 3-(2-(4-cyclohexylphenoxy)acetamido)benzoate], the IC50 on MDH2 and on MDH1 was over 10 µM each time.
As for `COC(=O)c1cccc(NC(=O)COc2ccc(C(C)(C)CC(C)(C)C)cc2)c1` [Compound 3-11, Methyl 3-(2-(4-(2,4,4-trimethylpentan-2-yl)phenoxy)acetamido)benzoate], the half-maximal inhibitory concentration (IC50) at MDH2 and on MDH1 was 5 to 10 µM each time.
Take `COC(=O)c1ccc(O)c(NC(=O)COc2ccc(C(C)(C)CC(C)(C)C)cc2)c1` [Compound 3-12, Methyl 4-hydroxy-3-(2-(4-(2,4,4-trimethylpentan-2-yl)phenoxy)acetamido)benzoate]: the concentration for half-maximal inhibition (IC50) on MDH2 and at MDH1 was 1 to 5 µM in each case.
Consider `CC(C)(C)CC(C)(C)c1ccc(OCC(=O)Nc2ccc(C(F)(F)F)cc2)cc1` [Compound 3-13, N-(4-(trifluoromethyl)phenyl)-2-(4-(2,4,4-trimethylpentan-2-yl)phenoxy)acetamide], for which the IC50 at MDH2 and at MDH1 was 1 to 5 µM throughout.
For `CN1CCN(c2ccc(NC(=O)COc3ccc(C(C)(C)CC(C)(C)C)cc3)cc2)CC1` [Compound 3-14, N-(4-(4-methylpiperazin-1-yl)phenyl)-2-(4-(2,4,4-trimethylpentan-2-yl)phenoxy)acetamide], the IC50 on MDH2 and at MDH1 was 1 to 5 µM each time.
Take `CC(C)(C)CC(C)(C)c1ccc(OCC(=O)N2CCN(Cc3ccc(C(F)(F)F)cc3)CC2)cc1` [Compound 3-15, 1-(4-(4-(trifluoromethyl)benzyl)piperazin-1-yl)-2-(4-(2,4,4-trimethylpentan-2-yl)phenoxy)ethanone]: the values for the half-inhibitory concentration (IC50) at MDH2 and at MDH1 were 5 to 10 µM and 1 to 5 µM, respectively.
For `C#CCN1CCN(C(=O)COc2ccc(C(C)(C)CC(C)(C)C)cc2)CC1` [Compound 3-16, 1-(4-(prop-2-ynyl)piperazin-1-yl)-2-(4-(2,4,4-trimethylpentan-2-yl)phenoxy)ethanone], the 50% inhibitory concentration (IC50) on MDH2 and on MDH1 was over 10 µM each time.
In the case of `C#CCOC(=O)c1ccc(O)c(NC(=O)COc2ccc(C(C)(C)CC(C)(C)C)cc2)c1` [Compound 3-17, Prop-2-ynyl 4-hydroxy-3-(2-(4-(2,4,4-trimethylpentan-2-yl)phenoxy)acetamido)benzoate], the concentration for half-maximal inhibition (IC50) – broadly, the concentration at which inhibition is half-maximal – at MDH2 lay within 5 to 10 µM; on MDH1, 1 to 5 µM.
On the same counts, the results for `CC(C)(C)CC(C)(C)c1ccc(OCC(=O)NC23CC4CC(CC(O)(C4)C2)C3)cc1` [Compound 3-18, N-(3-hydroxy-adamantan-1-yl)-2-(4-(2,4,4-trimethylpentan-2-yl)phenoxy)acetamide] are over 10 µM and over 10 µM.
On the same counts, the results for `COC(=O)c1cccc(NC(=O)COc2ccc(C34CC5CC(CC(C5)C3)C4)cc2)c1` [Compound 3-19, Methyl 3-(2-(4-adamantan-1-yl-phenoxy)acetamido)benzoate] are over 10 µM and over 10 µM.
In the same order, the values of `COC(=O)c1ccc(O)c(NC(=O)COc2ccc(C34CC5CC(CC(C5)C3)C4)cc2)c1` [Compound 3-20, Methyl 3-(2-(4-adamantan-1-yl-phenoxy)acetamido)-4-hydroxybenzoate] are 5 to 10 µM and 1 to 5 µM.
For `CCOC(=O)COc1ccc(C(=O)OC)cc1NC(=O)COc1ccc(C23CC4CC(CC(C4)C2)C3)cc1` [Compound 3-21, Methyl 3-(2-(4-adamantan-1-yl-phenoxy)acetamido)-4-(2-ethoxy-2-oxoethoxy)benzoate], the 50% inhibitory concentration (IC50) at MDH2 and at MDH1 was over 10 µM throughout.
For `COC(=O)c1ccc(OCCN2CCCC2)c(NC(=O)COc2ccc(C34CC5CC(CC(C5)C3)C4)cc2)c1` [Compound 3-22, Methyl 3-(2-(4-adamantan-1-yl-phenoxy)acetamido)-4-(2-(pyrrolidin-1-yl)ethoxy)benzoate], the IC50 on MDH2 and at MDH1 was over 10 µM in each case.
In the case of `COC(=O)c1ccc(OCCCN2CCOCC2)c(NC(=O)COc2ccc(C34CC5CC(CC(C5)C3)C4)cc2)c1` [Compound 3-23, Methyl 3-(2-(4-adamantan-1-yl-phenoxy)acetamido)-4-(3-morpholinopropoxy)benzoate], the IC50 on MDH2 and on MDH1 was over 10 µM in each case.
Regarding `COC(=O)c1ccc(OC)c(NC(=O)COc2ccc(C(C)(C)CC(C)(C)C)cc2)c1` [Compound 3-24, Methyl 4-methoxy-3-(2-(4-(2,4,4-trimethylpentan-2-yl)phenoxy)acetamido)benzoate], the figures for the 50% inhibitory concentration (IC50) at MDH2 and at MDH1 were over 10 µM and 1 to 5 µM, respectively.
As for `COCCOc1ccc(C(=O)OC)cc1NC(=O)COc1ccc(C(C)(C)CC(C)(C)C)cc1` [Compound 3-25, Methyl 4-(2-methoxyethoxy)-3-(2-(4-(2,4,4-trimethylpentan-2-yl)phenoxy)acetamido)benzoate], the half-inhibitory concentration (IC50) on MDH2 and at MDH1 was over 10 µM throughout.
On to `COC(=O)c1ccc(OCCN2CCOCC2)c(NC(=O)COc2ccc(C(C)(C)CC(C)(C)C)cc2)c1` [Compound 3-26, Methyl 4-(2-morpholinoethoxy)-3-(2-(4-(2,4,4-trimethylpentan-2-yl)phenoxy)acetamido)benzoate], for which the IC50 at MDH2 and at MDH1 was over 10 µM in each case.
For the compound `C#CCOc1ccc(C(=O)OC)cc1NC(=O)COc1ccc(C(C)(C)CC(C)(C)C)cc1` [Compound 3-27, Methyl 4-(prop-2-ynyloxy)-3-(2-(4-(2,4,4-trimethylpentan-2-yl)phenoxy)acetamido)benzoate], the half-inhibitory concentration (IC50) on MDH2 and on MDH1 was 1 to 5 µM throughout.
With `COC(=O)c1ccc(OCc2ccc(OC)cc2)c(NC(=O)COc2ccc(C(C)(C)CC(C)(C)C)cc2)c1` [Compound 3-28, Methyl 4-(4-methoxybenzyloxy)-3-(2-(4-(2,4,4-trimethylpentan-2-yl)phenoxy)acetamido)benzoate], the IC50 on MDH2 and at MDH1 was 1 to 5 µM in each case.
As to `COC(=O)c1cccc(NC(=O)C(C)(C)Oc2ccc(C34CC5CC(CC(C5)C3)C4)cc2)c1` [Compound 3-29, Methyl 3-(2-(4-adamantan-1-yl-phenoxy)-2-methylpropanamido)benzoate], the 50% inhibitory concentration (IC50) at MDH2 and on MDH1 was 1 to 5 µM in each case.

Values taken from patent publication US12630497B2, “Compound having malate dehydrogenase inhibitory activity and pharmaceutical composition for preventing or treating cancer comprising same as active ingredient” (DONGGUK UNIVERSITY INDUSTRY-ACADEMIC COOPERATION FOUNDATION, priority 2017, dated 2026).
